Measured values published in the METLIN SMRT retention time set (Domingo-Almenara et al. 2019).

Assay: gradient 5% acetonitrile 3 min, to 50% in 2 min, to 85% in 15 min, held 3 min, 100 µL/min
Conditions: column: Zorbax Extend-C18 2.1 x 50 mm; eluents: water / acetonitrile, 0.1% formic acid
Method in brief: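 Using water and acetonitrile that each contained 0.1% formic acid, mixtures of ~100 pure standards were separated at 100 μL/min on a Zorbax Extend-C18 column (2.1 × 50 mm, 1.8 μm). The HPLC fed a quadrupole time-of-flight mass spectrometer working in positive and negative ionization mode, with dead and dwell volumes of 40 μL and 900 μL. Data were acquired over 3 months. Retention time was read from computationally picked adduct peaks after manual inspection of each.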

SMILES	RP-LC retention time [s]
COCc1nc2cccnc2n1C1CCN(C(=O)Nc2cc(OC)cc(OC)c2)CC1	696
CCC(=O)N1N=C(c2cccc(NS(=O)(=O)CC)c2)CC1c1cccc([N+](=O)[O-])c1 (stereo unspecified)	651
O=C(Nc1cc(-c2ccsc2)no1)C1CCCC1	918
CCn1cc(S(=O)(=O)N2CCCCC2c2nc(-c3ccncc3)n[nH]2)cn1 (stereo unspecified)	695
Cc1nc(C)c(C(=O)Nc2ccc(F)cc2Cl)s1	820
O=C1NCCCn2cc(S(=O)(=O)Nc3ccc(F)cc3Cl)cc21	650
CC(C)CCNC(=O)C1(C)CN(S(=O)(=O)c2ccccc2)CC(=O)N1Cc1ccc(F)cc1 (stereo unspecified)	978
Oc1ccc2c3c1O[C@H]1c4[nH]c5ccccc5c4C[C@@]4(O)C(C2)N(CC2CC2)CC[C@]314	717
CCCCNC(=O)c1nc(Nc2ccc(CC)cc2)c2ccccc2n1	916
Cc1ccc(-c2cn3c(CC(=O)Nc4ccc(C)c(F)c4)csc3n2)cc1C	933
CCc1ccc(C2=C(C)C(N3CCCN(C(=O)C(C)(C)CC)CC3)=NS2(=O)=O)cc1	935
CCn1cc(C(=O)Nc2ccc(Cl)cc2)c2cccnc21	931
CC1=Nc2ccccc2N=C(NC(=O)Nc2cccc(Cl)c2)C1c1ccc(Cl)cc1 (stereo unspecified)	1170
c1ccc(CCc2nc3nccc(-c4cccnc4)n3n2)cc1	726
Cn1c(N2CCCN(C(=O)c3ccc(Br)o3)CC2)cc(=O)n(C)c1=O	653
COc1ccc(C2(C(=O)N3C[C@@H](CO)[C@H](c4ccccn4)C3)CC2)cc1	605
Cc1nn(C(C)C)c(C)c1S(=O)(=O)N1CCN(C(=O)c2cncc(Br)c2)CC1	762
Cc1cccc(NC(=O)Cn2ccc3ccc(-c4nnc(C)o4)cc32)n1	700

SMILES	RP-LC retention time [s]
CCOc1cc(C(=O)N2CCN(c3cc(-c4cccs4)[nH]n3)CC2)cc(OCC)c1OCC	907
Clc1cc(Cl)cc(-c2ccc(CNCc3ccccn3)o2)c1	742
Cn1c(N2CCCC(C(=O)NCCC3=CCCCC3)C2)cc(=O)n(C)c1=O (stereo unspecified)	754
CCCCC(=O)Nc1cnc(N2CCNCC2)c(C(=O)N2CCCCC2C)c1 (stereo unspecified)	619
CNC(=O)N1CCC(OC(C)=O)CC1	583
COc1ccc(S(=O)(=O)N2CCC3(CC2)c2nccn2CCN3C)cc1OC	610
O=C(NCc1ccccc1)N1[C@H]2CC[C@@H]1c1cnc(-c3ccccc3)nc1C2	865
OC[C@@H]1CNC[C@H]1C1CCN(Cc2ccc(OC(F)(F)F)cc2)CC1	591
CC(C)CCNC(=O)C1Cn2cccc2C(=O)N1C (stereo unspecified)	668
CC1(CNC(=O)c2cccc(Br)c2)CCOCC1	797
CCNC(=O)N1CCc2nc(OCC)ccc2C1	606
CCC1CN2C=Nc3oc(C)c(C(=O)Nc4ccc5c(c4)OCO5)c3C2=N1 (stereo unspecified)	632
CCC(C(=O)Nc1ccc(-c2nc(Cn3nc(C)cc3C)c(C)o2)cc1)c1ccccc1 (stereo unspecified)	1050
OC(COCC(c1ccccc1)c1ccccc1)Cn1cnc2ccccc21 (stereo unspecified)	639
CCN1CCN(C(=O)Cc2csc(-n3nc(C)c(Cl)c3C)n2)CC1	691
O=C(NCc1ccco1)c1cn(-c2cc(N3CCOCC3)ncn2)cn1	651
O=C(NCc1ccncc1)c1ccc(-c2ccsc2)nc1	589

The next lines start with the values.

RP-LC retention time [s]	SMILES
601	O=C(NCc1cccc(Cl)c1)c1ccc2c(c1)ncn2CCN1CCCC1
910	CCc1cc(C2CCCN2C(=O)Nc2ccccc2Cl)on1 (stereo unspecified)
921	COc1ccc2[nH]cc(CCNC(=O)c3ccc(N4CCCC4)c(S(=O)(=O)N4CCCC4)c3)c2c1
982	CC1CCN(C(=O)c2ccc3ccnc(N4CCN(c5ccc(Cl)cc5)CC4)c3c2)CC1
604	CCN1CCN(C(=O)Cn2nc(C)c3sc(-c4ccccc4)nc3c2=O)CC1
1050	N#Cc1ccc(NC(=O)C2CCN(S(=O)(=O)c3cc(-c4noc(C5CCC5)n4)cs3)CC2)cc1
624	c1cncc(-c2noc(CCC3CCCN(C4CCCCC4)C3)n2)c1 (stereo unspecified)
722	O=C(NCCc1c[nH]c2ccccc12)C1CCN(c2ncnc3c2oc2ccccc23)CC1
634	COCCN1C(=O)c2ccccc2C(C(=O)NCCN2CCCCC2C)C1c1cccs1 (stereo unspecified)
753	CC(C)n1cnc(S(=O)(=O)N2CCC(C(=O)Nc3cccc(-c4ccno4)c3)CC2)c1
804	O=C(NC1CCCCCC1)c1ccc2c(c1)nc1n2CCN(c2ccccc2)C1=O
936	O=C(Nc1ccc2c(c1)OCO2)c1cn(-c2cc(N3CCCCC3)ncn2)cn1
722	Nc1cc(C2CCN(C(=O)Nc3ccc(Cl)cc3)CC2)no1
819	CC(=O)Nc1cccc(-c2nc(-c3ccc4c(c3)oc(=O)n4C)no2)c1
823	Cc1nn(C(C)C(=O)NCCCOC(C)C)c(=O)c2c(C)n(-c3ccccc3)nc12 (stereo unspecified)
730	COC(=O)c1c(C)[nH]c(C(=O)N2CCC(CC(=O)NC3CCCCC3)CC2)c1C

RP-LC retention time [s]	SMILES
622	CCOc1ccc2ncc(C(=O)c3ccc(C)cc3)c(N3CCN(CC)CC3)c2c1
695	O=C(COc1ccc(C2=NN(C(=O)c3cccs3)C(c3ccccc3)C2)cc1)NCCO (stereo unspecified)
624	CC12CC(c3ccccc3O1)C(C(=O)N1CCN(C(=O)c3ccco3)CC1)C(=O)N2 (stereo unspecified)
720	Cc1nnc(N2CCCC(C(=O)NCc3ccc(F)cc3)C2)c2nn(-c3ccccc3)c(C)c12 (stereo unspecified)
656	CCNC(=O)c1ncn2c1C(=O)N(C1CC1)C(C)(C(=O)NCc1ccccc1)C2 (stereo unspecified)
776	O=C1CCCc2cc(S(=O)(=O)N3CCC(C(=O)NCCc4ccc(Cl)cc4)CC3)ccc2N1
807	CN1C(=O)c2cc(C(=O)Nc3ccccc3Br)nn2CC1(C)C(=O)NC1CCCCC1 (stereo unspecified)
692	CC(C)NC(=O)c1ccc2c(c1)NC(=O)C1CCCCN21 (stereo unspecified)
772	O=C(Cn1cccc1-c1nc(-c2ccc(Cl)cc2)cs1)N1CCN(c2ccccn2)CC1
877	Cc1cc2c(c(=O)n(-c3ccccc3)c(=O)n2CC(=O)Nc2ccc(Br)cc2)n1C
584	CCn1c(N2CCC(C(=O)N3CCN(c4ccccn4)CC3)CC2)cc(=O)n(C)c1=O
817	O=C(C1CCCCC1)N1CCN(c2nnc3ccc(C(F)(F)F)cn23)CC1
990	O=C(NC1CCCC1)NC1CCN(c2nc3cccnc3n(Cc3ccccc3)c2=O)CC1
757	CCc1ccc(-c2cc(C)no2)cc1S(=O)(=O)N1CCN(c2ccccn2)CC1
640	CCc1noc(-c2ccnc(-n3cnc(C(=O)NC4CCCCCC4)c3)c2)n1
